# Positions of bridges follow the written chain, without caps; N, C: chain ends. No end group written: not given here.
# Tests used:
# [1] = test system: hamster insulinome cell line HIT; experiment: Proliferation test by recount of the cells number (hemocytometer), HIT; format: cell-based; conditions: Postadhesion, 4 days
# Procedure: In this assay and with the aim of determining whether the presence in the culture medium produces some effect on the growth in vitro of the cell lines, the final number of the cells when the control reaches monolayer is determined, in the presence and in the absence of the inhibitor. The calculation is made by direct recount of the number of cells using trypsinization and subsequent recount in a hemocytometer. The detailed method is as follows: 1. In each of the three culture flasks of 25 cm^2, 5×10^5 cells are seed and a total volume of the culture medium is added (DMEM with a 10% of fetal bovine serum or synthetic serum, according to the test) of 5 mL: 2. The cells are maintained in an incubator at 37° C., 87% of relative humidity and 10% of CO2. […] The total number of cells of the W zone of the hemocytometer is counted, differentiating between the live and the dead ones. Based on this recount, the total number of cells that was in the initial suspension (which will be the total number of cells that was in the culture) is calculated by multiplying the number obtained by 2×10^4. The viability (in %) is calculated by dividing the number of live cells by the total number of counted cells and multiplying it by 100. The effect produced by the presence of PCI in the medium is expressed as % of cell growth inhibition, which is calculated according to the formula [formula] […]
# [2] = test system: cell line Capan-1; experiment: Studies of PCI disappearance from the culture medium; format: cell-based, human; conditions: 50 μg/mL flask, 24 h; CPA inhibitory activity and ELISA
# Procedure: The studies of PCI disappearance were carried out in the cell line Capan-1 by employing various concentrations of PCI.
# In three small culture flasks (of 25 cm^2), 5×10^5 cells were placed in each and they were cultivated in medium DMEM+10%FBS until the moment in which, through microscope observation, it could be seen that they had reached 75% of confluence. At this moment, the medium was removed and was substituted by new DMEM+10%FBS (50 μg/mL flask) and by medium with 200 μg/mL of PCI (flask 200 μg/mL). The three flasks were cultivated for a further 24 h. From each of these, samples of […] of culture medium were extracted at half hour intervals. In each of these samples, the existing concentration of PCI was determined by employing two methods (described in the bibliography cited in point 4.A.):
# Tests of carboxypeptidase A inhibitory activity
# In such tests, samples taken from the control flask at the same intervals were used as blanks.
# One of the ELISAs that was done with the samples coming from the 200 μg/mL flask was carried out under special conditions in the first step (fixation of the antigens); concretely, by using a concentration of 0.5 M NaCl.
# [3] = test system: β2-microglobuline; experiment: Gene expression analysis by Northern transfer, β2-microglobuline probe; format: cell-based, human; conditions: 12 days, Capan-1 (control 955)
# Procedure: To verify whether the PCI plays any role in signal transduction, studies of gene expression were carried out by Northern transfer. The probes were: β2-microglobulin, p53 and trypsin. The β2-microglobulin is a constitutive gene that is used as a sample loading control in the gel. p53 is a transcription factor which, among other functions, controls the state of the genomic DNA and the cell cycle (Bates, S. & Vousden, K. H. (1996) Curr. Opin. Genet. Develop., 6: 12-19). If the DNA is damaged, p53 induces its repair and, if it is excessively damaged, it provokes programmed cellular death (apoptosis). Trypsin is a marker of pancreatic cells of the acinar type. The trypsin is not expressed by all the tumoral cells and it is believed that it is expressed by the cells with metastatic power and/or invasive power (Fernández, E. et al., (1994) Cancer, 73: 2285-2295). The probes employed are described as follows:
# In the first place, 3×10^6 cells of the human pancreatic adenocarcinoma cell line Capan-1 were placed in each one of the 12 flasks of 150 cm^2. […] They were maintained in culture for 12 days period, changing their medium every 4 days, adding fresh PCI. […]
# The quantifying of the hybridized filters with the respective probes was done using a Betascope 601 blot Analyzer counter (Betagen, USA). […]
substance,measurement,setting,value
"PCI: potato carboxypeptidase inhibitor, isoform IIa, obtained by recombinant DNA techniques in E. coli (SEQ ID NO.2) (EQHADPICNKPCKTHDDCSGAWFCQACWNSARTCGPYVG; disulfide 12-27, 18-34, 8-24)",Percentage of Growth Inhibition,[1]; 10 mg PCI/mL,43.0 ± 22.8%
same,Percentage of Growth Inhibition,[1]; 50 mg PCI/mL,60.1 ± 28.3%
same,internalization (disappearance of PCI from the culture medium),[2],clearly internalized by the cells
same,"beta counts, β2-microglobuline probe",[3]; 1 mg/mL PCI,2183
same,"beta counts, β2-microglobuline probe",[3]; 10 mg/mL PCI,6287
